Measurements taken from PubChem BioAssay (NCI).
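Exposure lasted 48 hours, with cells grown in 96-well plates and compounds tested at five concentrations. The concentration for full growth arrest is given as TGI.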

Assays:
Assay in all cases: NCI tumour cell line growth inhibition, 48 h
T-47D breast = system: T-47D breast
SK-OV-3 ovarian = system: SK-OV-3 ovarian
DU-145 prostate = system: DU-145 prostate
RPMI-8226 leukemia = system: RPMI-8226 leukemia
MOLT-4 leukemia = system: MOLT-4 leukemia
CAKI-1 renal = system: CAKI-1 renal
U251 CNS = system: U251 CNS
786-0 renal = system: 786-0 renal
UO-31 renal = system: UO-31 renal
BT-549 breast = system: BT-549 breast

| SMILES | TGI (T-47D breast) [µM] | TGI (SK-OV-3 ovarian) [µM] | TGI (DU-145 prostate) [µM] | TGI (RPMI-8226 leukemia) [µM] | TGI (MOLT-4 leukemia) [µM] | TGI (CAKI-1 renal) [µM] | TGI (U251 CNS) [µM] | TGI (786-0 renal) [µM] | TGI (UO-31 renal) [µM] | TGI (BT-549 breast) [µM] |
| --- | --- | --- | --- | --- | --- | --- | --- | --- | --- | --- |
| Cc1nnc(SCc2nc(C#N)c(C#N)nc2CSc2nnc(C)s2)s1 | 17.3 | > 75.9 | 29.2 | 18 | 12.9 | 11.6 | 37.5 | 28.8 | 24.1 | 36.3 |
| Cc1ccc(S(=O)(=O)NC(=O)Nc2ccc(C(=O)O)cc2)cc1 | > 100 | > 100 | > 100 | > 100 | > 100 | – | > 100 | > 100 | > 100 | > 100 |
| COC(=O)[C@H](C)NC(=O)[C@H](NS(=O)(=O)c1nc2ccccc2s1)c1ccccc1 | 32.4 | > 100 | 41 | > 100 | > 100 | 67.2 | 41 | 80.4 | 35.8 | > 100 |
| O=C(O)CCCc1ccc2c(c1)C(C(=O)O)CC2 (centres undefined) | > 100 | > 100 | > 100 | > 100 | > 100 | > 100 | > 100 | > 100 | > 100 | > 100 |
| COc1cc(C2c3cc4c(cc3[C@@H](Nc3ccc(F)cc3)C3COC[C@H]23)OCO4)cc(OC)c1O (some centres undefined) | > 25 | > 25 | – | 13.1 | 0.993 | – | 18 | 6.35 | 4.57 | – |
| CC(=O)OC12c3ccccc3C(c3ccccc31)C1C(=O)N(N=C(C)C)C(=O)C12 (centres undefined) | > 100 | > 100 | > 100 | > 100 | > 100 | > 100 | > 100 | > 100 | > 100 | > 100 |
| CC1(C)N=C(/C(Cl)=[N+](/[O-])C(=O)c2ccc(Cl)cc2)C(C)(C)N1O | 95.1 | > 100 | > 100 | 72.6 | – | 42.7 | 55.5 | – | > 100 | – |
| BrC1(c2ccccc2)C[n+]2c(-c3ccccc3)cc(-c3ccccc3)cc2-c2ccccc21 (centres undefined) | – | – | 13.2 | 1.13 | 6.38 | 9.66 | 1.2 | 13.4 | 3.31 | 1.85 |
| O=C(Nc1cccc2ccccc12)c1cc2ccccc2oc1=O | > 100 | > 100 | > 100 | > 100 | > 100 | > 100 | > 100 | 50.3 | – | > 100 |
| Cc1cc(-c2ccc(N=Nc3ccc4c(S(=O)(=O)O)cc(S(=O)(=O)O)c(N)c4c3O)c(C)c2)ccc1N=Nc1ccc2c(S(=O)(=O)O)cc(S(=O)(=O)O)c(N)c2c1O | – | > 100 | – | > 100 | > 100 | – | > 100 | – | > 100 | – |
| O=C1/C(=C\c2cccc(Oc3ccccc3)c2)SC(c2ccccc2)N1c1cc(Cl)ccc1Cl (centres undefined) | > 100 | > 100 | > 100 | 98.7 | > 100 | > 100 | > 100 | 76.5 | > 100 | > 100 |
| CC(C)CNP(=O)(NCC(C)C)Oc1ccc(CC(NC(=O)OCc2ccccc2)C(=O)OCc2ccccc2)cc1 (centres undefined) | 33.5 | 29.2 | 24.3 | 40 | 41.1 | > 100 | 30.1 | 28.9 | 39 | 52.4 |
| CC(C)C(NCc1c2ccccc2[n+](C)c2ccccc12)C(=O)O (centres undefined) | – | 31 | – | 5.15 | 7.86 | 12.1 | 18 | 15.6 | 21.7 | – |
| O=S(Nc1ccccc1)c1ccc(Cl)cc1 (centres undefined) | > 100 | – | > 100 | > 100 | > 100 | > 100 | > 100 | > 100 | > 100 | > 100 |
| NC(=O)CSc1nc2ccccc2c(=O)n1N | > 100 | – | > 100 | > 100 | > 100 | > 100 | > 100 | > 100 | > 100 | > 100 |
| CC(=O)CCC1(C(=O)OCC(C)C)CCCC1=O (centres undefined) | > 100 | > 100 | > 100 | – | > 100 | > 100 | > 100 | > 100 | > 100 | > 100 |
| O=C(N/N=C/c1ccccc1)c1c(F)c(F)c(F)c(F)c1F | > 100 | > 100 | > 100 | > 100 | > 100 | > 100 | > 100 | – | > 100 | > 100 |
| CC(C)(NO)/C(=N\O)c1ccccc1 | > 10 | – | > 10 | > 10 | > 10 | > 10 | > 10 | > 10 | > 10 | > 10 |
| CC1CC(c2ccccc2)=Nc2ccccc2S1 (centres undefined) | – | > 100 | – | > 100 | > 100 | > 100 | > 100 | – | > 100 | – |
| C=CCOC(C)(C)C1=CCC(C)CC1 (centres undefined) | – | > 100 | > 100 | > 100 | > 100 | > 100 | > 100 | > 100 | > 100 | > 100 |
| Clc1[nH]nc2ccccc12 | > 100 | > 100 | > 100 | > 100 | > 100 | – | > 100 | > 100 | > 100 | > 100 |
| CCCCCCCCCCCC1=C(O)C(=O)C(CC2=C(O)C(=O)C(CCCCCCCCCCC)=C(O)C2=O)=C(O)C1=O | > 100 | > 100 | > 100 | – | > 100 | > 100 | > 100 | > 100 | > 100 | > 100 |
| Cc1ccc(S(=O)(=O)N/N=c2/sc3ccccc3n2C)cc1 | > 100 | > 100 | > 100 | > 100 | > 100 | > 100 | > 100 | > 100 | > 100 | – |
